The values that follow come from the pKa sets of Baltruschat and Czodrowski (2020).

Regarding `Oc1ccc2nnccc2c1`, the pKa (usually the negative logarithm of the acid dissociation constant) came out at 7.52 (acidic group) and 3.65 (basic group).

`O=C1CC(=O)CC2(CCCCC2)C1`: where the note is “acidic group”, the pKa worked out at 5.2.

The compound `CC(=O)Nc1cccc2cc3ccccc3nc12` displayed a pKa (basic group) of 3.

In the case of `C[Si](C)(C)O[Si](C)(C)CCCC(=O)O`, where the note is “acidic group”, the pKa worked out at 5.03.

On to `Cc1ccc(C(=O)O)c(O)c1`, for which the pKa (acidic group) was determined as 3.11.

For the setting “basic group”, `O=P([O-])([O-])c1cn2c(n1)[C@@H](O)[C@H](O)[C@@H](O)[C@@H]2CO` returned a pKa of 7.69.

`c1ccc(-c2nnc(-c3ccccc3)o2)cc1` yielded a pKa (basic group) of 1.96.

Compound `CC1=Nc2ccccc2N=C(C)C1` had a pKa (basic group) of 3.85.

As for `C[Si](C)(C)CCN`, under “basic group”, the pKa is 11.

`C[n+]1cccc(C(=O)Cc2ccccc2)c1` yielded a pKa (acidic group) of 10.3.

On to `CSc1ccc(C(=O)O)cc1`, for which the pKa (acidic group) came out at 4.23.

Consider `CC(CN1c2ccccc2Sc2ccccc21)N(C)C` (stereo not drawn), for which the pKa (basic group) stood at 8.65.

Take `O=C(CCN1CCOCC1)C(c1ccccc1)c1ccccc1`: under “basic group”, the pKa came to 6.39.

`O=C(O)c1cccc(Br)c1` registered a pKa (acidic group) of 3.79.

The compound `Nc1ccc(Cc2ccc(N)cc2)cc1` had a pKa (basic group) of 5.1.

`O=C([O-])CNC(=O)c1ccccc1O` displayed a pKa (acidic group) of 8.16.

`Cc1cc([O-])n(C2CCN(C)CC2)n1` had a pKa (basic group) of 9.

`CCC1(C2=CCCCC2)C(=O)NC(=S)NC1=O` had a pKa (acidic group) of 7.12.

On to `CN1CC[C@]23c4c5ccc(O)c4O[C@H]2[C@@H](O)CC[C@H]3[C@H]1C5`, for which the pKa (basic group) was determined as 8.94.

In turn, `c1ccc(-n2cccn2)nc1` returned a pKa (basic group) of 1.07.

As to `CN(C)c1cccc2cccc(N(C)C)c12`, the pKa (basic group) was determined as 12.1.

In turn, `CSc1cccnc1` showed a pKa (basic group) of 4.45.

Turning to `CCCCNc1ccnc2cccc([N+](=O)[O-])c12`, the pKa (basic group) was found to be 7.18.

Under “acidic group”, `CC(=O)/C(=N/O)c1ccccc1` gave a pKa of 8.85.

For `CCc1cc(CC)c(OC)c(C(=O)NC[C@H]2CCC[NH+]2CC)c1O`, the pKa (acidic group) is 7.24.

As for `c1ccc(NCC[NH+]2CCCCC2)cc1`, where the note is “basic group”, the pKa came to 2.8.

Consider `CC1ONCc2ccccc21` (stereo not drawn), for which the pKa (basic group) turned out to be 3.6.

On to `NC(=S)c1ccccc1`, for which, for the setting “basic group”, the pKa was -3.2.

On to `Ic1nnn[nH]1`, for which the pKa (acidic group) was 2.85.

The compound `CC1(C)O[C@@H]2CC(=O)OC[C@]23[C@@H]1CC(=O)[C@@]1(C)[C@H]3C[C@](C)(CC2CCOC2)C[C@]12O[C@H]2C(=O)O` (stereo partly drawn) registered a pKa (acidic group) of 2.7.

The compound `CCOC(=O)[C@H](C)N` had a pKa (basic group) of 7.8.

For the setting “acidic group”, `CC(=N\O)/C(CO)=N/O` came in with a pKa of 10.1.

Take `NS(=O)(=O)c1ccc([N+](=O)[O-])cc1`: the pKa (acidic group) stood at 8.63.

`Cc1nc2ccccc2[nH]1` returned a pKa (basic group) of 6.3.

With `Nc1ccc(B(O)O)c([N+](=O)[O-])c1`, where the note is “acidic group”, the pKa amounted to 9.64.

For the compound `CC(=O)C[N+](=O)[O-]`, for the setting “acidic group”, the pKa was 5.1.

In the case of `Cc1cccc(C[N+](=O)[O-])c1`, under “acidic group”, the pKa is 6.97.

In turn, `CN(C)CCN(C)CCN` gave a pKa (basic group) of 9.88.

For the setting “basic group”, `CN(CCO)c1ccccc1` registered a pKa of 4.89.

`CN(CCC[NH+](C)C)C(=O)/C=N/O` yielded a pKa (acidic group) of 8.68.

With `CC(C)CN(CC(C)C)C(=S)S`, the pKa (acidic group) was found to be 3.4.

`COc1ccc(C2CCC[NH+]2C)cn1` (stereo not drawn) registered a pKa (basic group) of 1.34.

`O=[N+]([O-])c1cccc(S(=O)(=O)Nc2ccccc2)c1`: the pKa (acidic group) was 7.5.

`Nc1ccc2cc3ccc(N)cc3nc2c1` returned a pKa (basic group) of 9.65.

Compound `Oc1ccc2cc3ccccc3cc2c1` displayed a pKa (acidic group) of 9.92.

For the setting “basic group”, `Nc1ccc(Cl)cc1[N+](=O)[O-]` yielded a pKa of -0.88.

Regarding `Cc1cc(O)cc(C)[o+]1`, where the note is “acidic group”, the pKa came out at 0.38.

Compound `NCC(=O)NCCc1c[nH]cn1` had a pKa (basic group) of 8.04.

For the setting “basic group”, `Cc1cccc(Cl)c1/C(=N/CCCN(C)C)c1ccccc1` came in with a pKa of 8.8.

For the compound `C[N+](C)(C)NC(=O)c1ccc([N+](=O)[O-])cc1`, under “acidic group”, the pKa worked out at 3.11.

`CCCCCCCCc1c(-c2ccccc2)nn(-c2ccccc2)c1O` displayed a pKa (acidic group) of 7.5.

`COc1cc(S(N)(=O)=O)cc(C(=O)N[C@@H]2C[C@H]3CC[C@@H](C2)N3Cc2ccccc2)c1OC`: the pKa (basic group) turned out to be 8.87.

Compound `CCOCCn1c(CN2CCCN(CCCCn3cc(C(=O)[O-])cn3)CC2)nc2ccccc21` displayed a pKa (basic group) of 9.1.

With `O/C(=C/[n+]1ccccc1)c1ccccc1`, under “acidic group”, the pKa amounted to 4.8.

`CC(C)c1ccc(C(=O)/C=C/C(=O)O)cc1`: the pKa (acidic group) is 3.4.

Compound `C[n+]1cccnc1[O-]` registered a pKa (basic group) of 2.5.

For the setting “basic group”, `Nc1ncnc2ncn([C@H]3O[C@H](CO)[C@@H](O)[C@H]3O)c12` yielded a pKa of 3.9.

In turn, `O=C([O-])c1cc2ccccc2cc1O` returned a pKa (acidic group) of 12.2.

`CN1CCCC(C(=O)[O-])C1` (stereo not drawn) had a pKa (basic group) of 9.7.

`CCOC(=O)COc1ccc(C(=O)c2ccc(O)c(C[NH3+])c2)c(Cl)c1Cl`: the pKa (acidic group) stood at 6.38.

`CC1CCN(C(C)C=C(c2cccs2)c2cccs2)CC1` (stereo not drawn): the pKa (basic group) stood at 8.2.

On to `Cc1ccc(C)c(C(=O)C(=O)O)c1`, for which the pKa (acidic group) turned out to be 1.45.

Compound `Cc1cc(N)c2ccccc2c1O` registered a pKa (acidic group) of 10.1.

As to `CCCP(=O)(CCC)CCC`, the pKa runs as follows: (acidic group) 12.2; (basic group) 4.9.

Compound `CC(C)[C@H](N)C(=O)[O-]` displayed a pKa (basic group) of 9.66.

As for `CC(=O)c1cc([N+](=O)[O-])ccc1C(=O)O`, where the note is “acidic group”, the pKa turned out to be 3.06.

`CCOC(=O)C(Cc1cccc(C)c1)C(C)=O` (stereo not drawn) displayed a pKa (acidic group) of 11.9.

As for `Cc1cnc2ccccc2c1`, the pKa (basic group) was 5.15.

Consider `Cc1[nH]c(C(=O)[O-])c(C(=O)O)[nH+]1`, for which the pKa (acidic group) came out at 4.54.

The compound `O=Cc1cccc(O)c1` gave a pKa (acidic group) of 8.86.

`CC(O)CNCCN` (stereo not drawn) gave a pKa (basic group) of 9.86.

In the case of `C1CNCC[NH2+]CCN1`, the pKa (basic group) was 6.97.

As to `CC1(C)S[C@H]2C(C(=O)[O-])[NH+]=C(CCCC(N)C(=O)[O-])N2C1C(=O)[O-]` (stereo partly drawn), where the note is “basic group”, the pKa was 7.6.

Compound `Fc1cc2nc[nH]c2cc1Cl` returned a pKa (basic group) of 4.33.

As for `S=C(Nc1ccc(Cl)c(Cl)c1)c1ccc(Cl)cc1`, under “acidic group”, the pKa was determined as 9.51.

For the setting “acidic group”, `NS(=O)(=O)c1nc2ccccc2s1` had a pKa of 7.8.

Regarding `Cc1ncc(CO)c(CO)c1O`, the pKa came out at 8.98 (acidic group) and 4.96 (basic group).

With `c1ccc2c(c1)NCC[NH2+]2`, the pKa (basic group) came to 2.11.

Take `c1ccc(N=C(Nc2ccccc2)Nc2ccccc2)cc1`: where the note is “basic group”, the pKa came to 9.1.

Under “basic group”, `Cc1cc([O-])[nH+]c([O-])n1` displayed a pKa of 9.29.

For `Cc1nnc(S)n1N`, the pKa (acidic group) is 7.97.

`O=[N+]([O-])c1cccc(NS(=O)(=O)c2ccccc2)c1` returned a pKa (acidic group) of 6.91.

The compound `O=C([O-])c1nccc2ccccc12` came in with a pKa (basic group) of 4.97.

In turn, `Oc1cc[nH+]cc1` displayed a pKa (acidic group) of 4.04.

For the compound `Cc1c(Cn2ccnc2)oc2ccc(C(=O)[O-])cc12`, the pKa (basic group) was found to be 6.08.

The compound `CSS/C(CCO)=C(/C)N(C=O)Cc1cnc(C)nc1N` showed a pKa (basic group) of 5.59.

Under “acidic group”, `C(CSCCc1nnn[nH]1)SCCc1nnn[n-]1` registered a pKa of 5.64.

With `O=C(C[n+]1cccc2c3ccccc3ccc21)c1ccc(-c2ccccc2)cc1`, under “acidic group”, the pKa is 11.2.

In the case of `Nc1ccc(-c2ccc(/[NH+]=C/c3ccccc3O)cc2)cc1`, the pKa (basic group) amounted to 4.75.

In turn, `CN(C)CCC(=O)[O-]` had a pKa (basic group) of 9.85.

Consider `CC(C)(S)CN`, for which the pKa came out at 11 (acidic group) and 8.48 (basic group).

In the case of `Cc1ccc2[nH]cnc2c1`, the pKa (basic group) came to 5.81.

Compound `O=S(=O)(O)c1ccc(Br)cc1` yielded a pKa (acidic group) of -6.72.

Take `O=P([O-])(O)C([NH2+]Cc1ccccn1)c1ccccc1O` (stereo not drawn): the pKa runs as follows: (acidic group) 5.15; (basic group) 3.12.

As to `SCCNc1ccccc1`, the pKa was 9.5 (acidic group) and 3.78 (basic group).

As to `O=CC1c2ccccc2C(=O)c2ccccc21`, the pKa (acidic group) came to 6.

For the compound `Cc1cc2c(cc1N)Sc1cc(N(C)C)ccc1N2`, the pKa (basic group) amounted to 5.41.

For the setting “basic group”, `CCCNCc1ccc(C)cc1` showed a pKa of 9.98.

Under “basic group”, `C(CN1CCOCC1)CN1CCOCC1` registered a pKa of 7.25.

Compound `Cc1ccc(N)cc1-c1cc([NH3+])ccc1C` registered a pKa (basic group) of 3.8.

Regarding `O=[N+]([O-])c1cccc(/C=N\O)c1`, under “acidic group”, the pKa is 10.7.

For the compound `O=C(O)c1cccc[nH+]1`, the pKa by setting is: (acidic group) 1.25; (basic group) -0.84.

Compound `CC/C(C)=C\C(=O)O` displayed a pKa (acidic group) of 5.15.

As to `CCOC(=O)COc1ccc(Cc2ccc(O)c(C[NH3+])c2)c(Cl)c1Cl`, the pKa (acidic group) came to 8.73.

The compound `O=C(O)c1cccc(=O)cc1` returned a pKa (acidic group) of 3.2.

Consider `CN(C)c1ccc(C(=N)c2ccc(N(C)C)cc2)cc1`, for which the pKa (basic group) was determined as 10.7.

`CCOC(=S)NC(=O)c1ccccc1` returned a pKa (acidic group) of 7.46.

The compound `CCCCOc1ccc(C(=O)O)cc1` had a pKa (acidic group) of 4.48.

`NCCNCCCO` gave a pKa (basic group) of 9.67.

`C[Si](C)(C)OC1CN(Cc2ccc(Cl)cc2)C1` showed a pKa (basic group) of 7.72.

`Cc1ccc(S(=O)(=O)N(C)CCC(=N)N)cc1` gave a pKa (basic group) of 11.5.

With `C(=C\C=N\c1ccccc1)/C=C/Nc1ccccc1`, the pKa (basic group) was determined as 8.52.

The compound `OCCCCCc1ccncc1` registered a pKa (basic group) of 6.04.

For `N#C[C@H]1CCCC[C@@H]1C(=O)O`, the pKa (acidic group) came to 3.86.

As for `O=C(O)CCC(=O)c1cccc2ccccc12`, the pKa (acidic group) was determined as 4.48.

The compound `Cn1cc(N)cc1C(=O)[O-]` came in with a pKa (basic group) of 7.

As for `COCCNc1cccc(OC)c1`, the pKa (basic group) is 3.7.

For the setting “acidic group”, `CC(C)(C(=O)O)c1nnnn1C1CCCCC1` had a pKa of 3.7.

`c1cnc2c(c1)ccc1c3c(cnc12)CCC3`: where the note is “basic group”, the pKa worked out at 5.78.

The compound `CN(C)c1nc(/N=N/O)nn1C` yielded a pKa (acidic group) of 5.94.

On to `CC(C)NCCNC(C)C`, for which the pKa (basic group) came out at 10.4.

For the compound `CC(=O)NNC1CCN(C)CC1`, where the note is “basic group”, the pKa turned out to be 8.7.

Turning to `Nc1ccc(O)c(N)c1`, the pKa runs as follows: (acidic group) 10.4; (basic group) 5.7.

Regarding `CCCN(CCC)CC(=O)NC1c2ccccc2-c2ccccc21`, where the note is “basic group”, the pKa was 7.28.

`Cc1cc(C)c2nc(C)cc(N)c2c1`: the pKa (basic group) is 10.4.

Turning to `Oc1c2c(nn1-c1ccccc1)CCCC2`, the pKa (acidic group) was found to be 11.4.

With `Oc1ccc2c(c1)Cc1ccccc1-2`, the pKa (acidic group) came out at 9.51.

For `CN(C)CCOCC[NH+](C)C`, where the note is “basic group”, the pKa is 8.21.

Take `C[NH+](C)CCCNc1c([N+](=O)[O-])cnc2ccccc12`: for the setting “basic group”, the pKa is 4.43.

`c1ncc2c(n1)NCCN2` gave a pKa (basic group) of 6.63.
